In ChEMBL document CHEMBL1201862, “PubChem BioAssay data set” (2004):
Activity calls are given as the source filed them.

Tests used:
[1] = Trypanosoma cruzi growth suppression in host cells – NIH3T3 host cells, beta-gal luminescence, confirmation (AID 2044); assay type: functional, cell-based;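 further: intracellular parasites grown in NIH/3T3 mouse fibroblasts as host cells; luminescent beta-galactosidase reporter signal from transgenic T. cruzi replicating inside host cells; inhibitors lower the luminescence signal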
[2] = NIH3T3 cell viability loss – ATP luminescence, mouse fibroblasts, counter-screen, dose response (AID 2010); assay type: functional, cell-based;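 further: cells exposed to compound for about 90 hours before reading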
[3] = molecular target: Disintegrin and metalloproteinase domain-containing protein 17 (Homo sapiens, UniProt P78536); assay: exosite inhibitors of ADAM17, dose response, biochemical (AID 743260)
[4] = inhibition of ADAM10 peptide cleavage – biochemical, FRET peptide substrate, recombinant human ADAM10, selectivity assay for ADAM17 exosite inhibitor project, dose response (AID 743259);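 further: ADAM10 enzyme cleaving a FRET peptide substrate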
[5] = A Cell-Based Confirmatory Screen for Compounds that Inhibit VEEV, TC-83 (3).; assay type: functional
Coagulation factor XII = molecular target: T1, Coagulation factor XII (Homo sapiens, UniProt P00748); assay: Factor XIIa Dose Response Confirmation from Single Well HTS. [Related pubchem assays (depositor defined):AID701]; assay type: functional
T1 sequence (P00748 whole entry): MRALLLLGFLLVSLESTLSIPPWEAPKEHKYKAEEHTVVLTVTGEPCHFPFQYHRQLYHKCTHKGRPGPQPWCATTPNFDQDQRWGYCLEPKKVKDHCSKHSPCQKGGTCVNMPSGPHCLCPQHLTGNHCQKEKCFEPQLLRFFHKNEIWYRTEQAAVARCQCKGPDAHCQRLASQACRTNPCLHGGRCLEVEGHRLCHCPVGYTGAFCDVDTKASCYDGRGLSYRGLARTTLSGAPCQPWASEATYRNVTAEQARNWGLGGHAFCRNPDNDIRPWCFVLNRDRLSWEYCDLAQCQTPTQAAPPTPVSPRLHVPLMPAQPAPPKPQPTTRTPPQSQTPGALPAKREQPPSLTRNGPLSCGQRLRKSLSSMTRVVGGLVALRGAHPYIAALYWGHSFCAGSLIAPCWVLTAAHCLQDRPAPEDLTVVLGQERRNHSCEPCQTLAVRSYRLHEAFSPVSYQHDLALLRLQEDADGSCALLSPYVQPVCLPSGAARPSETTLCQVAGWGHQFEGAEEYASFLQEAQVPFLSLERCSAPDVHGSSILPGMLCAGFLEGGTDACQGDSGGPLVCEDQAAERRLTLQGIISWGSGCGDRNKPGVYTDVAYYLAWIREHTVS

Mu-type opioid receptor = Mu-type opioid receptor (Homo sapiens, UniProt P35372); assay type: functional, cell-based;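 further: U2OS cells with beta-arrestin recruitment to OPRM1 by beta-gal complementation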
[6] = molecular target: 5-hydroxytryptamine receptor 2A (Mus musculus, UniProt P35363); assay type: functional, cell-based;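 further: CHO-K1 cells with tagged receptor and beta-arrestin; agonist potency measured as compound-induced activation of the receptor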
[7] = viability loss in HEK293T cells – cell-based, cherry-picks, cytotoxicity control for HIV Vif inhibitor project, dose response (AID 652208); assay type: functional
[8] = molecular target: T2, Sentrin-specific protease 1 (Homo sapiens, UniProt Q9P0U3); assay: SENP1 catalytic domain blockers, concentration series – biochemical, kinetic FRET, dose response (AID 651697); assay type: functional; conditions: read-out: IC50_Mean
T2 sequence (Q9P0U3 whole entry): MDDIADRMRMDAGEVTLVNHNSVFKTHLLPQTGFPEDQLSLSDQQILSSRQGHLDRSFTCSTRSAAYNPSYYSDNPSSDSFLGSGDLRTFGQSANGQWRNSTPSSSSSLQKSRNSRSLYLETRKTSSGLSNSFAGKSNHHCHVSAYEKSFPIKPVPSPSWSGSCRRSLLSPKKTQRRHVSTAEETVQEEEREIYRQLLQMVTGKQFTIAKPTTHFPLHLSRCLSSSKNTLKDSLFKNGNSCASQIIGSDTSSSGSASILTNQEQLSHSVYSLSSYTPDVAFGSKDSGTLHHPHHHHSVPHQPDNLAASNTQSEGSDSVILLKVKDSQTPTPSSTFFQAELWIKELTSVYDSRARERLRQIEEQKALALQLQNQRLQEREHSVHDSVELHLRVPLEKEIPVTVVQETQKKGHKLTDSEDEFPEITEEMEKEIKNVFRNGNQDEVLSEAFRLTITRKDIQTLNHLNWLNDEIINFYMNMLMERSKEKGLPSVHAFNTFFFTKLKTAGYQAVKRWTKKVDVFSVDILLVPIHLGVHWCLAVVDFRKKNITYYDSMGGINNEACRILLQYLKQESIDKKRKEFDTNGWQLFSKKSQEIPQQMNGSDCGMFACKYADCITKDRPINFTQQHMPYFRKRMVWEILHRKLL

[9] = molecular target: T2, Sentrin-specific protease 1; assay: Dose response confirmation of small molecule inhibitors of the catalytic domain of the SUMO protease, SENP1 in a FRET assay.; assay type: functional; conditions: read-out: IC50_Mean
cells = assay type: functional, cell-based
[10] = molecular target: Nuclear receptor subfamily 0 group B member 1 (Homo sapiens, UniProt P51843); assay type: functional, cell-based;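 further: HEK293T cells transfected with SF-1 and DAX-1 plus StAR promoter luciferase reporter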
[11] = molecular target: T3, Scavenger receptor class B member 1 (Mus musculus, UniProt Q61009); assay: mouse SR-BI DiI-HDL transfer blockers – ldlA[mSR-BI] CHO cells, fluorescence plate reader, dry powder, set 9, dose response (AID 623880); assay type: functional, cell-based
[12] = molecular target: T3, Scavenger receptor class B member 1; assay: blockers of DiI-HDL lipid transfer via SR-BI – cell-based, ldlA[mSR-BI] CHO, DiI fluorescence, dry powder, set 10, dose response (AID 624029); assay type: functional
Cryptococcus neoformans = assay: PubChem AID 686997; assay type: functional, organism-based
HeLa = assay: viability loss in HeLa cells – cell-based, ATP luminescence, cherry-pick samples, cytotoxicity control, dose response (AID 687004); assay type: functional; conditions: Homo sapiens
HEK293 = assay: viability loss in HEK293T cells – cell-based, ATP luminescence, cherry-pick samples, cytotoxicity control, dose response (AID 687005); assay type: functional; conditions: Homo sapiens;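 further: cells exposed to compound for 48 hours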
[13] = HEK293 Cytotoxicity Assay Measured in Cell-Based System Using Plate Reader - 7071-01_Inhibitor_Dose_CherryPick_Activity_Set2.; assay type: functional
Paired box protein Pax-8 = Paired box protein Pax-8 (Homo sapiens, UniProt Q06710); assay: PAX8 transcriptional activity inhibition in RMG-I – RMG-I cells, luciferase, cherry-pick, dose response (AID 687027); assay type: functional, cell-based;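 further: luciferase reporter driven by Pax8 target thyroperoxidase promoter measured by SteadyGlo luminescence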
[14] = IGROV1 cell killing – plate reader, dry powder samples, PAX8 inhibitor project, dose response (AID 743043); assay type: functional, cell-based; conditions: IGROV-1
[15] = OVCAR8 cell viability loss – plate reader, dry powder samples, PAX8 project, dose response (AID 743197); assay type: functional, cell-based; conditions: OVCAR-8
[16] = viability loss in LCL cells – cell-based, plate reader, dry powder, set 2, cytotoxicity control, dose response (AID 624367); assay type: functional
[17] = molecular target: Metabotropic glutamate receptor 3 (Rattus norvegicus, UniProt P31422); assay: inhibitors of rat mGlu3 Galpha15 signaling – TREx293 cells, calcium flux, mGlu3 NAM project, dose response (AID 651840); assay type: functional
[18] = viability loss in HepG2 hepatoma cells – cell-based, cherry-picks, set 5, cytotoxicity control, dose response (AID 1053118); assay type: functional
[19] = viability loss in HEK293 kidney cells – cell-based, cherry-picks, set 5, cytotoxicity control, dose response (AID 1053117); assay type: functional
[20] = A549 cell cytotoxicity, dose response, cytotoxicity control, plate reader, cherry-pick, antagonist series (AID 743412); assay type: functional, cell-based
[21] = toxicity toward HepG2 liver cells – cell-based, plate reader, cherry-pick, antagonist series, cytotoxicity control, dose response (AID 743416); assay type: functional
[22] = inhibition of bursicon-driven LGR2 cAMP signaling – cell-based, HEK293, CRE-luciferase reporter, cherry pick, dose response (AID 743342); assay type: functional
[23] = blockade of melanocortin 4 receptor signaling – cell-based, plate reader, cherry pick, counter-screen for LGR2 antagonist project, dose response (AID 743444); assay type: functional;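 further: transfected HEK 293 cells stimulated with alpha-MSH peptide; potency of inhibitors of the alpha-MSH evoked signal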
[24] = viability loss in HEK293 cells – cell-based, plate reader, cherry-picked samples, cytotoxicity control, dose response (AID 743446); assay type: functional
[25] = molecular target: T4, High affinity choline transporter 1 (Homo sapiens, UniProt Q9GZV3); assay: inhibition of SLC5A7-mediated choline transport – cell-based, HEK-293 hCHT, [3H]-choline uptake, dose response (AID 652177); assay type: functional
T4 sequence (Q9GZV3 whole entry): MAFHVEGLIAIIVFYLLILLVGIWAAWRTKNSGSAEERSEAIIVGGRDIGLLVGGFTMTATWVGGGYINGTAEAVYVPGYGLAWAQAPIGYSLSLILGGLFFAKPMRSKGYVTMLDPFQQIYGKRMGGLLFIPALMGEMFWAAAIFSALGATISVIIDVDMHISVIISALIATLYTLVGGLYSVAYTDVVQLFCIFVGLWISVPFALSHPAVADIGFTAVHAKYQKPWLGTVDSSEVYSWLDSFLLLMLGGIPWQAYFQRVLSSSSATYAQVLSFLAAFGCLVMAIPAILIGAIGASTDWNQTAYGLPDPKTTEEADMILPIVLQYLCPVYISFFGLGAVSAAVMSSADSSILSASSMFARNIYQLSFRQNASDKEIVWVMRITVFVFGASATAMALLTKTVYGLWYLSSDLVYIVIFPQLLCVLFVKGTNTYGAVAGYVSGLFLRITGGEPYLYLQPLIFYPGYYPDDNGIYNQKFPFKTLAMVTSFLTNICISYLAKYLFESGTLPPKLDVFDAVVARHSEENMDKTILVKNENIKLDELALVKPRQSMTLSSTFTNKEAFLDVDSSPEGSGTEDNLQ

Beta-lactamase [26] = molecular target: Beta-lactamase (Salmonella choleraesuis (strain SC-B67), UniProt Q5J463); assay: Epi-absorbance-based counterscreen for selective VIM-2 inhibitors: dose response biochemical high throughput screening assay to identify inhibitors of TEM-1 serine-beta-lactamase.
Beta-lactamase [27] = molecular target: T5, Beta-lactamase (Pseudomonas aeruginosa, UniProt Q79MP6); assay: inhibition of IMP-1 beta-lactamase activity – biochemical, epi-absorbance, selectivity assay for VIM-2 inhibitor project, dose response (AID 1920)
Beta Lactamase [28] = molecular target: T6, Beta Lactamase (Pseudomonas aeruginosa, UniProt Q932Y6); assay: concentration-dependent VIM-2 enzyme inhibition – biochemical, epi-absorbance readout, selective inhibitors, dose response (AID 1919)
Beta-lactamase [29] = molecular target: T5, Beta-lactamase; assay: […] counterscreen for selective VIM-2 inhibitors: dose response biochemical high throughput screening assay to identify inhibitors of IMP-1 metallo-beta-lactamase.
Beta Lactamase [30] = molecular target: T6, Beta Lactamase; assay: VIM-2 CCF2 hydrolysis inhibition, assay artifact filter – biochemical, FRET readout, CCF2 substrate, artefact control for selective VIM-2 inhibitor project, dose response (AID 1926)

T5 sequence (Q79MP6 whole entry): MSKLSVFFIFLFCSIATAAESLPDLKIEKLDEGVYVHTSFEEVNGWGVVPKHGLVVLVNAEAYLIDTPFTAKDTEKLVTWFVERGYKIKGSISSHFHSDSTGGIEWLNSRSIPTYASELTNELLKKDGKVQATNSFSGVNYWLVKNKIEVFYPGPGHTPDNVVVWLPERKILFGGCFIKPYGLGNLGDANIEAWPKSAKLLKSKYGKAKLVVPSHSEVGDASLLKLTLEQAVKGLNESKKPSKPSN
T6 sequence (Q932Y6 whole entry): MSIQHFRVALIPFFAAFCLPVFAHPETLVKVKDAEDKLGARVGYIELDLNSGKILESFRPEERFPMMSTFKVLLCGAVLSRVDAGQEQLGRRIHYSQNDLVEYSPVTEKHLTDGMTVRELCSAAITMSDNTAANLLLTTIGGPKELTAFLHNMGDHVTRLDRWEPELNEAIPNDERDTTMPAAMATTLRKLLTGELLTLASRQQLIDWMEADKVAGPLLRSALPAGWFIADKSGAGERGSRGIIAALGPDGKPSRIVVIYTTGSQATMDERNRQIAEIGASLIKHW
T3 sequence (Q61009 whole entry): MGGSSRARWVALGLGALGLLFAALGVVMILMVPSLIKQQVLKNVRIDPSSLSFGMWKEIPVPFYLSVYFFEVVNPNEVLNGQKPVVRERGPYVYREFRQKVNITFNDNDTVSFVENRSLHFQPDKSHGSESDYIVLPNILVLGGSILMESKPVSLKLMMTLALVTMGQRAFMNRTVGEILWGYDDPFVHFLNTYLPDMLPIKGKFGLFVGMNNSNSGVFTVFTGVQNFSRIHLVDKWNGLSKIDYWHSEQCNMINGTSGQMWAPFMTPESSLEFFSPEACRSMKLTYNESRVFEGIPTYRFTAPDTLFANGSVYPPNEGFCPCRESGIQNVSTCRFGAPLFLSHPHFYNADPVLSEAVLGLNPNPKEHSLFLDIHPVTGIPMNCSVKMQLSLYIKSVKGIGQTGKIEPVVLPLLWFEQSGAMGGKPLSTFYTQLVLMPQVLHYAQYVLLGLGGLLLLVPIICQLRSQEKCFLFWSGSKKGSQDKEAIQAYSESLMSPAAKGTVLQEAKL
Chain of Nuclear receptor subfamily 0 group B member 1 (P51843 whole entry): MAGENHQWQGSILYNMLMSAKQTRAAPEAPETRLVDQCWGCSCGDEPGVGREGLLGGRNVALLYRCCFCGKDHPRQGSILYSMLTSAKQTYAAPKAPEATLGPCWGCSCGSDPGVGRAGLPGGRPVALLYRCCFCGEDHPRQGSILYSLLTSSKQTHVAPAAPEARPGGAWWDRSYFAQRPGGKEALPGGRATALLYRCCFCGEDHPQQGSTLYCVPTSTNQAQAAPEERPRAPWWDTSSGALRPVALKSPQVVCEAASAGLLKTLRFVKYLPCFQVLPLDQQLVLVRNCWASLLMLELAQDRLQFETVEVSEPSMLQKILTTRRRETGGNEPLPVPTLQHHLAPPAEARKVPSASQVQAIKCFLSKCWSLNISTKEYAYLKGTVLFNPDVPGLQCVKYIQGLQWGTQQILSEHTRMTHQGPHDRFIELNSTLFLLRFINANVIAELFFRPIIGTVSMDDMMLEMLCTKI
Chain of Metabotropic glutamate receptor 3 (P31422 whole entry): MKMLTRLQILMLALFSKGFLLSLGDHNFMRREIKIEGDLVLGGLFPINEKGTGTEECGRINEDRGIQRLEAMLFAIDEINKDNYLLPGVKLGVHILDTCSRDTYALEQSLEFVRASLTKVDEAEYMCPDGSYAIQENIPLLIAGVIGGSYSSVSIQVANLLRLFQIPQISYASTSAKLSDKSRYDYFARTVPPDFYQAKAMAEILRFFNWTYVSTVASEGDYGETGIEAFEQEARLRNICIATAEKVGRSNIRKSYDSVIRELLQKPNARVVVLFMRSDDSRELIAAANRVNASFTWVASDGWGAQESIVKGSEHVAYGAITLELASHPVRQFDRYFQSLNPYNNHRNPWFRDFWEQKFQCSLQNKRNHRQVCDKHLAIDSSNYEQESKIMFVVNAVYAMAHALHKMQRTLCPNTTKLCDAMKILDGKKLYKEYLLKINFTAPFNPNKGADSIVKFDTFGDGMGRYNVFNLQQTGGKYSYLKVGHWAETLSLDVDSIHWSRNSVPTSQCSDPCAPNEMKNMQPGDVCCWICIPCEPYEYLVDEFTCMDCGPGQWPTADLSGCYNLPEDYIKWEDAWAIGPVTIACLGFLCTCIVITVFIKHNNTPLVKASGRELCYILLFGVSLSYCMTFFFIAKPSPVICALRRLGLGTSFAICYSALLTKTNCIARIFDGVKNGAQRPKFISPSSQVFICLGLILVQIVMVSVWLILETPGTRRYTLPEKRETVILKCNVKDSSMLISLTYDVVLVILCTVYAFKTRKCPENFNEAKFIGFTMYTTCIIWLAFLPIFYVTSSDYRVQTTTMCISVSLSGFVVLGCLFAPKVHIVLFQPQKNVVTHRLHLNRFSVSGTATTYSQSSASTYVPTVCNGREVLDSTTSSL
Chain of 5-hydroxytryptamine receptor 2A (P35363 whole entry): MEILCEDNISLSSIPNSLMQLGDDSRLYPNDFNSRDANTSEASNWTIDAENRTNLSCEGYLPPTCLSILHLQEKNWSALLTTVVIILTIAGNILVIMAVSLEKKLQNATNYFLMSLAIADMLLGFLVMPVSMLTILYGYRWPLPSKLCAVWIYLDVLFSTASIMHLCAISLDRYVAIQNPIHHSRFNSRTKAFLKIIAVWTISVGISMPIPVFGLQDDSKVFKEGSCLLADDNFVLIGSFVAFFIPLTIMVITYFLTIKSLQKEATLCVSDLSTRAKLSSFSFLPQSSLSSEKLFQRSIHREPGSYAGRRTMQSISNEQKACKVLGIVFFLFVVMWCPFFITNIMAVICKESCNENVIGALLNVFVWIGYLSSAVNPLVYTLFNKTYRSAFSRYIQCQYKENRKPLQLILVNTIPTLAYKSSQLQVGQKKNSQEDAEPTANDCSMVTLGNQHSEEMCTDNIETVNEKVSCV
Chain of Beta-lactamase (Salmonella choleraesuis (strain SC-B67), UniProt Q5J463) (Q5J463 whole entry): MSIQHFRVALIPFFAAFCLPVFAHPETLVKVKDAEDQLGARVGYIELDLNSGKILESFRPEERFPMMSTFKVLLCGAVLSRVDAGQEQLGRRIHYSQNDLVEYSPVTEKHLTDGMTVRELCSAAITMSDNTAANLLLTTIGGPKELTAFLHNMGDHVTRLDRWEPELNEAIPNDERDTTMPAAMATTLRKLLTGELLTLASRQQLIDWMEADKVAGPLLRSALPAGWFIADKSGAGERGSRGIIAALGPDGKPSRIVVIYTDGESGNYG
Chain of Mu-type opioid receptor (P35372 whole entry): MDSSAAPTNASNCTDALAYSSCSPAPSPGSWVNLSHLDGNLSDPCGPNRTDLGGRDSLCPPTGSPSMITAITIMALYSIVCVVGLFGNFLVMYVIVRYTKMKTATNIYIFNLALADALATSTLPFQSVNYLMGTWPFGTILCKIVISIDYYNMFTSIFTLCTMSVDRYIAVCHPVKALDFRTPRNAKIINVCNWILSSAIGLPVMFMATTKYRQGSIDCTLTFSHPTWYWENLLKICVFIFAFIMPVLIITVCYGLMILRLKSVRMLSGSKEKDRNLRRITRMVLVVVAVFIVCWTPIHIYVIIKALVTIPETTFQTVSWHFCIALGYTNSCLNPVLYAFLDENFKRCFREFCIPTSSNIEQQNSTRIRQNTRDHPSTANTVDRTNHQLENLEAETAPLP
Chain of Disintegrin and metalloproteinase domain-containing protein 17 (P78536 whole entry, the tested form may be a part): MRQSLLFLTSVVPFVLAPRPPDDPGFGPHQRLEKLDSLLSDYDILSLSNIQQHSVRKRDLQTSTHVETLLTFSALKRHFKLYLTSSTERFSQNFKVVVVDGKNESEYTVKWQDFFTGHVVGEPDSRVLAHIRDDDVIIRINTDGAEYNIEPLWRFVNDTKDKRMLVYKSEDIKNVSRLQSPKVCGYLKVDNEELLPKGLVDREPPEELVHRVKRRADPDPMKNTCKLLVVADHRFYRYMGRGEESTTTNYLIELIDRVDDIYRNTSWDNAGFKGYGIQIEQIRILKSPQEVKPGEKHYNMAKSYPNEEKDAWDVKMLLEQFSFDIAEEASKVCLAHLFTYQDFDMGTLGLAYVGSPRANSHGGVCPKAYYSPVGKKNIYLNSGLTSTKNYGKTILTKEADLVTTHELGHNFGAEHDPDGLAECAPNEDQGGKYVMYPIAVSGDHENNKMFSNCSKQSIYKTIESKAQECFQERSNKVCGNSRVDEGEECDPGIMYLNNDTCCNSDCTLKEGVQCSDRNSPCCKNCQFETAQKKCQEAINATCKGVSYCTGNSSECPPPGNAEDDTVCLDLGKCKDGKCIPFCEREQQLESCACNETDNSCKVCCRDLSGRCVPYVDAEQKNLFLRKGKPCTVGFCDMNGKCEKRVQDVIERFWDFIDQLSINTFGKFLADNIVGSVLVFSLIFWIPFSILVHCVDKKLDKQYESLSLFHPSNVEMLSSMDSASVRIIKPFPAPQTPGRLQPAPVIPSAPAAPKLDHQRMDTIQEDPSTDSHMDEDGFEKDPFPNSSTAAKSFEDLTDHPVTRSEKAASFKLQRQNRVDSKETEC
Chain of Paired box protein Pax-8 (Q06710 whole entry): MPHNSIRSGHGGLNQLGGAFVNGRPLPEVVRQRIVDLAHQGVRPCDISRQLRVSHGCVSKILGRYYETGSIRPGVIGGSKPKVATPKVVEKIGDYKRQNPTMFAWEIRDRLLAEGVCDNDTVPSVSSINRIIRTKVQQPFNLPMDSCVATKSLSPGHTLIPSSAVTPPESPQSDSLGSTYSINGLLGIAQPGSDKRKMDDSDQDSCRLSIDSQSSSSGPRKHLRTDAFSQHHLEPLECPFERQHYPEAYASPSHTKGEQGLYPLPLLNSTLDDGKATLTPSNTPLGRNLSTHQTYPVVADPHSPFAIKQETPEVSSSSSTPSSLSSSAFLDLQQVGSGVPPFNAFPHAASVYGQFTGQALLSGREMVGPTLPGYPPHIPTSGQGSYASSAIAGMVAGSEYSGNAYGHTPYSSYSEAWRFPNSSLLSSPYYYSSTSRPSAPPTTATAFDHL

COC(=O)C1=C(c2cc3ccccc3s2)C[C@@H]2CC[C@H]1N2C(=O)NCc1ccc(C(F)(F)F)cc1
EC50 [1]: 3.12 µM (active) | EC50 [2]: 8.21 µM (active) | IC50 [3]: > 69.5 µM (inactive) | IC50 [4]: > 7.72 µM (active)

O=c1c2cc([N+](=O)[O-])ccc2nc(CN2CCOCC2)n1-c1ccccc1F
IC50 [5]: 9.6 µM (active)

CCOC(=O)N1CCN(C/C(C)=C/c2ccccc2)CC1
IC50 (Coagulation factor XII): > 50 µM (inactive) | EC50 (Mu-type opioid receptor): 92.5 µM (inactive) | EC50 [6]: 11.5 µM (inactive)

CCOC(=O)C1CCN(S(=O)(=O)c2cccc(-c3cn4cc(C)ccc4n3)c2)CC1
AC50 [7]: > 52 µM (inactive)

COc1ccc(N2C(=O)C3C(C2=O)C(C(=O)c2ccc(Cl)cc2)N2CCCC32)cc1 (configuration not stated)
IC50 [8]: 5.56 µM (active) | IC50 [9]: 4.36 µM (active)

CC(=O)Nc1ccc(-c2ccnc3c2CC(C(=O)NCc2ccco2)O3)cc1 (configuration not stated)
IC50 (cells): > 67.5 µM (inactive) | IC50 [10]: > 67.5 µM (inactive)

C[C@@H]1CN([C@H](C)CO)C(=O)c2cc(NC(=O)C3CCOCC3)ccc2O[C@H]1CN(C)S(=O)(=O)c1ccc(Cl)cc1
AC50 [11]: 34.2 µM (active) | AC50 [12]: 34.8 µM (active)

COC(=O)C1=C(C)N(Cc2ccc(Cl)cc2)C(=S)NC1c1cccc(OC)c1 (configuration not stated)
AC50 (Cryptococcus neoformans): 57.5 µM (active) | AC50 (HeLa): > 52 µM (inactive) | AC50 (HEK293): 11.4 µM (active) | AC50 [13]: 11.4 µM (active)

COc1cccc(-c2ccc([C@H]3[C@@H](CO)N(C(=O)c4ccccn4)[C@H]3C#N)cc2)c1
AC50 (Paired box protein Pax-8): 7.31 µM (active) | AC50 [14]: 68.1 µM (active) | AC50 [15]: 39.2 µM (active)

Cc1cc(C(=O)Nc2ccc3c(c2)C(=O)N(C)[C@@H]2CC[C@H](CC(=O)NCc4ccc(-c5ccccc5)cc4)O[C@@H]2CO3)no1
AbsAC35 [16]: 211.39 µM

COc1ccc(C#Cc2ccc(C(=O)N3CCC(=O)C(C)(C)C3)cc2)cc1
IC50 [17]: 3.13 µM

CO[C@@H]1CN(C)C(=O)c2cc(NC(=O)Nc3cc(Cl)cc(Cl)c3)ccc2OC[C@H](C)NC[C@@H]1C
AC50 [18]: 13.1 µM (active) | AC50 [19]: 15.8 µM (active)

COc1ccc(NC(=O)Nc2ccc3c(c2)C(=O)N([C@H](C)CO)C[C@H](C)[C@H](CN(C)CC2CCCCC2)OCCCC[C@H](C)O3)cc1
AC50 [20]: 17.9 µM (active) | AC50 [21]: 13.7 µM (active) | AC50 [22]: 38.9 µM (active) | AC50 [23]: 42.7 µM (active) | AC50 [24]: 40.3 µM (active)

CCn1cc(CNC(=O)c2ccc(OC)c(OC3CCN(C(C)C)CC3)c2)cn1
IC50 [25]: 6.81 µM (active)

COc1ccc(OC)c(/C=N/NC(=O)CC2C(=O)NN=C2C)c1 (configuration not stated)
IC50 (Beta-lactamase [26]): > 59.6 µM (inactive) | IC50 (Beta-lactamase [27]): > 59.6 µM (inactive) | IC50 (Beta Lactamase [28]): 6.1 µM (active) | IC50 (Beta-lactamase [29]): > 59.6 µM (inactive) | IC50 (Beta Lactamase [30]): 2.13 µM (active)
